The test deals with stage IVB Hodgkin's lymphoma with metastases. The test can be described thus: In vivo studies Example 4: patient, oral chlorin e4 sodium plus laser and LED light. Further details: species or system human. The method, then:
A patient with stage IVB Hodgkin's lymphoma with metastases in the liver, lymphatic system, spleen, lung and bones, was treated successfully. The treatment consisted of three courses. For each course, five doses of 62.5-187.5 mg chlorin e4 sodium were administered orally over the course of eight days. 24-48 hours after each oral dose of chlorin e4 sodium, the patient was treated with laser and LED light having a wavelength of 660 nm and 760 nm.
Subsequently the patient was treated with a further two courses. Again, for each course, five doses of 62.5-187.5 mg chlorin e4 sodium were administered orally over the course of eight days. 24-48 hours after each oral dose of chlorin e4 sodium, the patient was treated with laser and LED light having a wavelength of 660 nm and 760 nm.

Each structure is given as a SMILES string.

Regarding `C=Cc1c(C)c2cc3nc(c(C)c4[nH]c(cc5nc(cc1[nH]2)C(C)=C5CC)c(C)c4C(=O)O)[C@@H](CCC(=O)O)[C@@H]3C` [chlorin e4 sodium], where the note is “after a further two courses”, the “Response (PET/CT)” value is “good treatment response”. In addition, the “Tumours in areas treated with light (CT)” value (after three courses) was “some tumours disappeared altogether and some tumours reduced in size”. Further, the Survival time entry (life expectancy before treatment only two weeks) was “two years and two months”.

Values taken from US20150315202A1, “CHLORIN DERIVATIVE USEFUL IN PHOTODYNAMIC THERAPY AND DIAGNOSIS” (RMW CHO GROUP LIMITED, priority 2012, published 2015).
